Assay results as given in patent US20150307520A1, “NOVEL HETEROARYL AND HETEROCYCLE COMPOUNDS, COMPOSITIONS AND METHODS THEREOF” (HUTCHISON MEDIPHARMA LIMITED, priority 2012, published 2015).

Experiments:
Format in all cases: biochemical
p110γ = p110γ (Homo sapiens, UniProt P48736); experiment: Transcreener KINASE Assay, kinase inhibition of p110γ; conditions: for PI3Kγ IH % @ 1 uM: 1 uM test compound; for IC50: read-out: PI3Kγ IC50
Outline: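 Homogeneous endpoint format using recombinant enzymes; ADP measured by far-red FP immunoassay after 80 min reaction and 60 min detection, both at room temperature.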

p110β/p85α = p110β/p85α (Homo sapiens, UniProt P42338); experiment: Transcreener KINASE Assay, kinase inhibition of p110β/p85α; conditions: for PI3Kβ IH % @ 1 uM: 1 uM test compound; for IC50: read-out: PI3Kβ IC50
Chain of p110β/p85α (P42338 whole entry): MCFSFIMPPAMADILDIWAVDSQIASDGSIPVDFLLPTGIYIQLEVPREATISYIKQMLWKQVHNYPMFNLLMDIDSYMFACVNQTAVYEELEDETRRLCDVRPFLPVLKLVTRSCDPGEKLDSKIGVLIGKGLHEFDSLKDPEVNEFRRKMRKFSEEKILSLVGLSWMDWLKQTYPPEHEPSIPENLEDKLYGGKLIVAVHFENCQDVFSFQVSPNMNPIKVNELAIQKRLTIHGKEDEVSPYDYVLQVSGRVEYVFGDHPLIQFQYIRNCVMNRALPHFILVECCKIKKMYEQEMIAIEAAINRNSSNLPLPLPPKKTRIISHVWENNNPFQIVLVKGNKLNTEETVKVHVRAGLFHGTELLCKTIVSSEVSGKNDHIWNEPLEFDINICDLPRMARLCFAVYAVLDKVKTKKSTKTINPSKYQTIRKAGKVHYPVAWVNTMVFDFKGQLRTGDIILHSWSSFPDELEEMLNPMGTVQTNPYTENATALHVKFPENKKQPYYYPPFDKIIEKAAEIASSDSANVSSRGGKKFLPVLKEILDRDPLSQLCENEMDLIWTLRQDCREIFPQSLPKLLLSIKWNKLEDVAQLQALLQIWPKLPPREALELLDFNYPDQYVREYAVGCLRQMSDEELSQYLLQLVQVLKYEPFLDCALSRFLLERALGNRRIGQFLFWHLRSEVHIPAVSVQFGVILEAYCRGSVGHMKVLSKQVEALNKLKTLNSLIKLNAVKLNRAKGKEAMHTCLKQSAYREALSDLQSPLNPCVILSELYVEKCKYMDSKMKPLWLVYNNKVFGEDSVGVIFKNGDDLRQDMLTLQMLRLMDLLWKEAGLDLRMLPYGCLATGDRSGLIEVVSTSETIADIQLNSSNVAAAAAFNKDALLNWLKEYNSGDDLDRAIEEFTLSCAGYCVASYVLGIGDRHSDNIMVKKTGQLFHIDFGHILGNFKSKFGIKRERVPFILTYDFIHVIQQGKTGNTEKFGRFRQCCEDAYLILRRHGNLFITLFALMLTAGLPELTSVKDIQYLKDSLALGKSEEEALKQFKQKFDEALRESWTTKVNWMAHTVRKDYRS
Chain of p110β/p85α (P27986 2-724 partner): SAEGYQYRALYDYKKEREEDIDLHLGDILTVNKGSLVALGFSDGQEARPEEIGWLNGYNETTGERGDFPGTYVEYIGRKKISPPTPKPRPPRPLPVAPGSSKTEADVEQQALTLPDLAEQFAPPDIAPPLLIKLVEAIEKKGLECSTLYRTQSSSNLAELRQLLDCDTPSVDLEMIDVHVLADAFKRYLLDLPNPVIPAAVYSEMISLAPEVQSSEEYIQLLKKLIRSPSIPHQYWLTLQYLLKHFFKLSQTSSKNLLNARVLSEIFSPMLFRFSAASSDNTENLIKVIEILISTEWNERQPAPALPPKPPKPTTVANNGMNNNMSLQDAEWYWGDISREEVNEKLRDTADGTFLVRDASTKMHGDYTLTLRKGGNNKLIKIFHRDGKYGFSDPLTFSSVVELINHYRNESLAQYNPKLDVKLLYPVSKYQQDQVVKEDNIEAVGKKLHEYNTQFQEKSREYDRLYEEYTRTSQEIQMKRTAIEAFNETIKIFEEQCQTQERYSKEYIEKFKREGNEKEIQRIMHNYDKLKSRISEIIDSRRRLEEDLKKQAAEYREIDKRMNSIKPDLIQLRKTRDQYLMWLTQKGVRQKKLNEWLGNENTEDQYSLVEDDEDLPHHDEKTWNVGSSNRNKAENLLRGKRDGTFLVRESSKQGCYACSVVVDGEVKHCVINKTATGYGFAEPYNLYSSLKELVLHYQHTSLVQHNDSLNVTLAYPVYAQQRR
Outline: (§1)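 ADP production was read by fluorescence polarization immunoassay (60 min detection step) after an 80 min room-temperature reaction of p110/p85α enzyme, compound in 2% DMSO, and PIP2/ATP solution (30 uM/10 uM as added) in HEPES buffer with MgCl2 and DTT. IC50s came from inhibition versus the DMSO control.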

p110δ/p85α = p110δ/p85α (Homo sapiens, UniProt O00329); experiment: Transcreener KINASE Assay, kinase inhibition of p110δ/p85α; conditions: for PI3Kδ IH % @ 1 uM: 1 uM test compound; for IC50: read-out: PI3Kδ IC50
Chain of p110δ/p85α (O00329 whole entry): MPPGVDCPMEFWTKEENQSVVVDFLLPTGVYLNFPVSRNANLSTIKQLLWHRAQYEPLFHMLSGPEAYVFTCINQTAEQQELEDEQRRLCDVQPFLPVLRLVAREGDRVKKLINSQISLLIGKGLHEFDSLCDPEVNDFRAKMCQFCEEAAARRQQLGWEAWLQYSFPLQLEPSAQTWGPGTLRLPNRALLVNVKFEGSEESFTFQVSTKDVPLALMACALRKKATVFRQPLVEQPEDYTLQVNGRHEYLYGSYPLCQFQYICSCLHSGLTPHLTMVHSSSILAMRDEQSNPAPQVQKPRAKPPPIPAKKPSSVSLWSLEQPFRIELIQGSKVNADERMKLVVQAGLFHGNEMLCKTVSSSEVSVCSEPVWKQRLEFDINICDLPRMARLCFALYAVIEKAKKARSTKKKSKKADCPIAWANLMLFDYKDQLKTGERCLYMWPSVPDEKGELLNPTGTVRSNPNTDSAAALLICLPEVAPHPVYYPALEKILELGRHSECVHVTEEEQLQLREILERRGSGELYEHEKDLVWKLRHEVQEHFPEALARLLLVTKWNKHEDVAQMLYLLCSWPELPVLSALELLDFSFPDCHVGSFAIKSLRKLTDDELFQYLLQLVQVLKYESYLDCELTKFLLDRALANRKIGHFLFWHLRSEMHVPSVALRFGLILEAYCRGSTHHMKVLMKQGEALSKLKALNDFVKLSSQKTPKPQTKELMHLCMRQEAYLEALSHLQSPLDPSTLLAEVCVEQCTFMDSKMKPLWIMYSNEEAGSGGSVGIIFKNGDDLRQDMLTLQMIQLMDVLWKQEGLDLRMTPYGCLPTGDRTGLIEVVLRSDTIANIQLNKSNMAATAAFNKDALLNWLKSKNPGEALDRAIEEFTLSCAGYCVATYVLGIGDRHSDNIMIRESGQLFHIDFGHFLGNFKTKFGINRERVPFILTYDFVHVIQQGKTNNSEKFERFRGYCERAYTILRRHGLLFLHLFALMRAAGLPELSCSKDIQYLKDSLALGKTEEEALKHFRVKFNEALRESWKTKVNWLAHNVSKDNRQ
Chain of p110δ/p85α (P27986 whole entry partner): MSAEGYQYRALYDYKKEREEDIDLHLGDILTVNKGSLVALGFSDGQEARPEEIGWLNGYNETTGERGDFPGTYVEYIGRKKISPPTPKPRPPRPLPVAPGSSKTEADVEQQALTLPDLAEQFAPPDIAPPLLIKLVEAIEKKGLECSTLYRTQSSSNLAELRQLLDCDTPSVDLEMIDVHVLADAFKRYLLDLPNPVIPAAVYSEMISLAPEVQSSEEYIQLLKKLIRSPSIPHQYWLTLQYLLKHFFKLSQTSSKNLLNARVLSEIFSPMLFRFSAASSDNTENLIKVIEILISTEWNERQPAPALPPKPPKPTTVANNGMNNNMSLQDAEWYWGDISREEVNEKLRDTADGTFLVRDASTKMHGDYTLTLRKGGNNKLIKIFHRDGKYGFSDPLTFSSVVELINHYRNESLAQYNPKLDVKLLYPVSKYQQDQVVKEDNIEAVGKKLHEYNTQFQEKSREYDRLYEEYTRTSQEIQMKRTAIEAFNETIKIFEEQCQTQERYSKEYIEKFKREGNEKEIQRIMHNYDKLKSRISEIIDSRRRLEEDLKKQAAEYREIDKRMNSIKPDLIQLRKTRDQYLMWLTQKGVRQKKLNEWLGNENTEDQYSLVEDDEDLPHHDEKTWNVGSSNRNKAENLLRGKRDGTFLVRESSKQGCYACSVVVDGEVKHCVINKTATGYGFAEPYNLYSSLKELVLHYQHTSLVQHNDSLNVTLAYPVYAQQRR
Outline: as §1

Chain of p110γ (P48736 whole entry): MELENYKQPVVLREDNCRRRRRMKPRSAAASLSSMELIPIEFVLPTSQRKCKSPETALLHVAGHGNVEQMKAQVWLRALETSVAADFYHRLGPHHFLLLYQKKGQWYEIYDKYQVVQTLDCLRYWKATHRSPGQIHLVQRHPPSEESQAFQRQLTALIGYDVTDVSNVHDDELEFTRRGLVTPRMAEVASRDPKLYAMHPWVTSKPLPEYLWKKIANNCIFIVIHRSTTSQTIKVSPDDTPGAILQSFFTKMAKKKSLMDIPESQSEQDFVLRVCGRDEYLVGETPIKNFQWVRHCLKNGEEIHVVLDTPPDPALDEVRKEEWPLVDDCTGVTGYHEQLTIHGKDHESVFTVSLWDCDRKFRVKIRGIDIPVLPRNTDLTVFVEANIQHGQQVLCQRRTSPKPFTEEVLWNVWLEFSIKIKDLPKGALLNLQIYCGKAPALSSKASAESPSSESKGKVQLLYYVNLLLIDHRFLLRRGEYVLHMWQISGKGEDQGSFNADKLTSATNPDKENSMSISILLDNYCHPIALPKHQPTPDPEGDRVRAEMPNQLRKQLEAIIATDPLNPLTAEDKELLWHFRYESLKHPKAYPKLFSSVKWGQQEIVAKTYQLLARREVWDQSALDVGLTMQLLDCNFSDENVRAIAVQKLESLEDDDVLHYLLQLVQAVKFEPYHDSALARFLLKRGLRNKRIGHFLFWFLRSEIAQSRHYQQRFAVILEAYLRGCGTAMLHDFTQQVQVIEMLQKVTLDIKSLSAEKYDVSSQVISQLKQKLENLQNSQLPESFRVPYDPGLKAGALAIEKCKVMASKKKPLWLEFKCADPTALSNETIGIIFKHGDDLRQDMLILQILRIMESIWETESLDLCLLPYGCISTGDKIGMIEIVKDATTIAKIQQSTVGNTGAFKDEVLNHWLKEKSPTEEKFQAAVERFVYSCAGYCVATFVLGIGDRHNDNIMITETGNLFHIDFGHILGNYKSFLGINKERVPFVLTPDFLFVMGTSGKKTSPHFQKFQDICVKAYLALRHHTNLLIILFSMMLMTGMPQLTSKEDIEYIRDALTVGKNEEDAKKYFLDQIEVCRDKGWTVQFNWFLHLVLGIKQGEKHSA

Row | PI3Kγ IH % @ 1 uM (p110γ) | IC50 (p110γ) | PI3Kβ IH % @ 1 uM (p110β/p85α) | PI3Kδ IH % @ 1 uM (p110δ/p85α) | IC50 (p110δ/p85α) | IC50 (p110β/p85α) | Structure (SMILES)
1 | 98.3% | 27 nM | 68.3% | 97.5% | 6 nM |  | O=c1c2c(Cl)ccn2cc(C2CCCN2c2ncnc3[nH]cnc23)n1-c1ccccc1 (centres unmarked) [Compound 363, 3-(1-(9H-purin-6-yl)pyrrolidin-2-yl)-8-chloro-2-phenylpyrrolo[1,2-a]pyrazin-1(2H)-one]
2 | >100% | 17 nM | 88.2% | 99.1% | 2 nM | 56 nM | N#Cc1c[nH]c2ncnc(N3CCCC3c3cn4ccc(Cl)c4c(=O)n3-c3ccccc3)c12 (centres unmarked) [Compound 364]
3 | 88.6% | 25 nM | 79.0% | 98.0% | 3 nM | 275 nM | CS(=O)(=O)[C@H]1C[C@@H](c2nn3ccc(Cl)c3c(=O)n2-c2ccccc2)N(c2ncnc3[nH]cc(C#N)c23)C1 [Compound 365, 4-((2S,4S)-2-(5-chloro-4-oxo-3-phenyl-3,4-dihydropyrrolo[2,1-f][1,2,4]triazin-2-yl)-4-(methylsulfonyl)pyrrolidin-1-yl)-7H-pyrrolo[2,3-d]pyrimidine-5-carbonitrile]
4 | 86.8% | 89 nM | 74.4% | 97.1% | 11 nM | 300 nM | CS(=O)(=O)[C@H]1C[C@@H](c2nn3ccc(Cl)c3c(=O)n2-c2ccccc2)N(c2ncnc3[nH]cnc23)C1 [Compound 366]
5 | 90.4% | 3 nM | 68.8% | >100% | 2 nM | 242 nM | CC(=O)c1cnc(N)nc1N1CCC[C@H]1c1nn2ccc(Cl)c2c(=O)n1-c1ccccc1 [Compound 369, (S)-2-(1-(5-acetyl-2-aminopyrimidin-4-yl)pyrrolidin-2-yl)-5-chloro-3-phenylpyrrolo[2,1-f][1,2,4]triazin-4(3H)-one]
6 | 74.4% | 317 nM | 17.5% | 89.8% | 70 nM |  | N#Cc1c[nH]c2ncnc(N3CC[C@H]3c3nn4ccc(Cl)c4c(=O)n3CC3CC3)c12 [Compound 371, (S)-4-(2-(5-chloro-3-(cyclopropylmethyl)-4-oxo-3,4-dihydropyrrolo[2,1-f][1,2,4]triazin-2-yl)azetidin-1-yl)-7H-pyrrolo[2,3-d]pyrimidine-5-carbonitrile]
7 | 87.7% | 297 nM | 42.6% | 84.8% | 100 nM |  | CS(=O)(=O)CCn1c([C@@H]2CCCN2c2ncnc3[nH]cnc23)nn2ccc(Cl)c2c1=O [Compound 372]
8 |  | 155 nM | 58.7% |  | 4 nM | 517 nM | O=c1c2c(Cl)ccn2nc([C@@H]2CCCN2c2ncnc3[nH]cnc23)n1C1CCC1 [Compound 374]
9 | 65.7% |  | 32.9% | 92.6% | 43 nM |  | N#Cc1c[nH]c2ncnc(N3CC[C@H]3c3nn4ccc(Cl)c4c(=O)n3C3CCC3)c12 [Compound 375]
10 | 93.2% | 26 nM | 54.8% | 99.1% | 6 nM |  | N#Cc1cnc(N)nc1N1CCC[C@H]1c1nn2ccc(Cl)c2c(=O)n1C1CCC1 [Compound 376]
11 | 96.3% | 45 nM | 39.8% | 98.0% | 34 nM |  | Cc1nc(N)nc(N2CC[C@H]2c2nn3ccc(Cl)c3c(=O)n2-c2ccccc2)c1Cl [Compound 377, (S)-2-(1-(2-amino-5-chloro-6-methylpyrimidin-4-yl)azetidin-2-yl)-5-chloro-3-phenylpyrrolo[2,1-f][1,2,4]triazin-4(3H)-one]
12 | >100% | 179 nM | 34.5% | 87.2% | 220 nM |  | COc1nc(N)nc(N2CC[C@H]2c2nn3ccc(Cl)c3c(=O)n2-c2ccccc2)c1C#N [Compound 378, (S)-2-amino-4-(2-(5-chloro-4-oxo-3-phenyl-3,4-dihydropyrrolo[2,1-f][1,2,4]triazin-2-yl)azetidin-1-yl)-6-methoxypyrimidine-5-carbonitrile]
13 |  | 35 nM | 14.5% |  | 59 nM |  | Nc1nc2c(c(N3CC[C@H]3c3nn4ccc(Cl)c4c(=O)n3-c3ccccn3)n1)C(=O)CCN2 [Compound 379]
14 | >100% | 10 nM | 87.8% | 98.0% | 1 nM | 65 nM | N#Cc1c[nH]c2ncnc(N3CC(=O)C[C@H]3c3nn4ccc(Cl)c4c(=O)n3-c3ccccc3)c12 [Compound 380, (S)-4-(2-(5-chloro-4-oxo-3-phenyl-3,4-dihydropyrrolo[2,1-f][1,2,4]triazin-2-yl)-4-oxopyrrolidin-1-yl)-7H-pyrrolo[2,3-d]pyrimidine-5-carbonitrile]
15 |  | 29 nM |  |  | 3 nM | 199 nM | O=C1C[C@@H](c2nn3ccc(Cl)c3c(=O)n2-c2ccccc2)N(c2ncnc3[nH]cnc23)C1 [Compound 381]
16 | 53.6% |  | 24.7% | 91.0% | 240 nM |  | C[C@@H](Nc1nc(N)ncc1C#N)c1cc2ncc(Cl)n2c(=O)n1-c1ccccc1 [Compound 384, (R)-2-amino-4-((1-(3-chloro-5-oxo-6-phenyl-5,6-dihydroimidazo[1,2-c]pyrimidin-7-yl)ethyl)amino)pyrimidine-5-carbonitrile]
17 | 80.7% | 173 nM | 69.3% | 96.2% | 2 nM |  | C[S@+]([O-])c1c[nH]c2ncnc(N3CCC[C@H]3c3nn4ccc(Cl)c4c(=O)n3-c3ccccn3)c12 [Compound 388, 5-chloro-2-((S)-1-(5-((S)-methylsulfinyl)-7H-pyrrolo[2,3-d]pyrimidin-4-yl)pyrrolidin-2-yl)-3-(pyridin-2-yl)pyrrolo[2,1-f][1,2,4]triazin-4(3H)-one]
18 | 90.5% | 129 nM | 0.1% | 91.4% | 185 nM |  | C[S@@+]([O-])c1c[nH]c2ncnc(N3CC[C@H]3c3nn4ccc(Cl)c4c(=O)n3-c3ccccn3)c12 [Compound 391, 5-chloro-2-((S)-1-(5-((R)-methylsulfinyl)-7H-pyrrolo[2,3-d]pyrimidin-4-yl)azetidin-2-yl)-3-(pyridin-2-yl)pyrrolo[2,1-f][1,2,4]triazin-4(3H)-one]
19 | 89.1% | 62 nM | 67.2% | 95.9% | 11 nM |  | C[S@+]([O-])c1c[nH]c2ncnc(N3C[C@@H](F)C[C@H]3c3nn4ccc(Cl)c4c(=O)n3-c3cccc(F)c3)c12 [Compound 392, 5-chloro-2-((2S,4S)-4-fluoro-1-(5-((S)-methylsulfinyl)-7H-pyrrolo[2,3-d]pyrimidin-4-yl)pyrrolidin-2-yl)-3-(3-fluorophenyl)pyrrolo[2,1-f][1,2,4]triazin-4(3H)-one]
20 | 90.7% | 9 nM | 35.2% | 94.7% | 9 nM |  | C[S@@+]([O-])c1c[nH]c2ncnc(N3C[C@@H](F)C[C@H]3c3nn4ccc(Cl)c4c(=O)n3-c3cccc(F)c3)c12 [Compound 393, 5-chloro-2-((2S,4S)-4-fluoro-1-(5-((R)-methylsulfinyl)-7H-pyrrolo[2,3-d]pyrimidin-4-yl)pyrrolidin-2-yl)-3-(3-fluorophenyl)pyrrolo[2,1-f][1,2,4]triazin-4(3H)-one]
21 | 94.1% | 17 nM | 86.1% | >100% | 2 nM | 369 nM | C[S@+]([O-])c1c[nH]c2ncnc(N3CCC[C@H]3c3nn4ccc(F)c4c(=O)n3-c3ccccc3)c12 [Compound 396, 5-fluoro-2-((S)-1-(5-((S)-methylsulfinyl)-7H-pyrrolo[2,3-d]pyrimidin-4-yl)pyrrolidin-2-yl)-3-phenylpyrrolo[2,1-f][1,2,4]triazin-4(3H)-one]
